System: mouse ischemic foot edema
Assay: Effect on mouse ischemic foot edema
Type: in vivo, ddy male mouse
Conditions: given just before ischemia, HA 26.71 mg
Description: A ddy male mouse aged 8 weeks is kept in a keeping device and the right hind leg is tied around with a suture (Brain No. 2). One end of the suture is fixed while a weight of 500 g is suspended from another end of the suture. Thus, ischemia is conducted for a definite period of time. Before the ischemia and 60 minutes thereafter, the thickness of the foot-pad of the animal was measured with slide calipers. Then, the foot-pad is cut and weighed. To a control group, a physiological saline is intravenously administered immediately before the initiation of the ischemia. To test groups, specimen shown in Table 6 was administered 30 minutes before the initiation of the ischemia and immediately before the same. Each group has 5 animals. The catarase used as a specimen was originated from bovine liver. The HA-catalase used was prepared as follows. 10 mg of the HA-catalase of lot No. 120-1 was dissolved in 5.2 ml of a physiological saline and filtered through a membrane of 0.22 μm (Milex GV; mfd. by Nippon Millipore Kogyo K.K.). 1 ml portions of the filtrate were distributed to ampuls to give a preparation for injection. The preparation contained 600 U of the enzyme per ampul.
The effects were calculated in accordance with the following equations. [formula] It is believed that a sample showing A of 40 or more is effective. [formula] It is believed that a sample showing A of 60 or more is effective.

hyaluronic acid [HA]
Effect A: 22 | Effect B: 35
